Test results as given in patent publication US4755594A, “N^6 -substituted adenosines” (Warner-Lambert Company, priority 1986, dated 1988).

What was measured:
[1] = Activity and screen test, rat orally: screen test; assay type: in vivo; settings: orally (PO)
Experimental: A two part testing procedure is started one hour postinjection. First, the screen test (ST) is performed (see Pharmac. Biochem. Behav. 6, 351-353, 1977). Briefly this test consists of placing mice on individual wire screens which are then rotated 180 degrees at the start of a 60 second observation period. The number of mice falling off the inverted screen is recorded.
The data obtained from the screen test are expressed as percent of mice falling off the screen. Data derived from locomotor activity of drug treated mice are compared to the activity of vehicle treated animals and are expressed as percent inhibition of spontaneous locomotion. All percentages reported for inhibition of locomotion (LI) are based upon data accumulated for one hour. Both phases of testing are graded: A=60-100%; C=31-59%; and N=0-30%. An overall dose rating is obtained by the following criteria: […]

[2] = target: T1, adenosine A1 receptor (Rattus norvegicus, UniProt P25099); assay: Adenosine Receptor Binding--A1 Receptor Affinity (RBA1), [3H]-CHA, whole brain membranes; settings: read-out: RBA-1 IC50
T1 construct: Whole brain minus cerebellum and brainstem from male Long-Evans rats; from tissue; host or cells: whole brain minus cerebellum and brainstem, male Long-Evans rats
T1 sequence (P25099 1-326): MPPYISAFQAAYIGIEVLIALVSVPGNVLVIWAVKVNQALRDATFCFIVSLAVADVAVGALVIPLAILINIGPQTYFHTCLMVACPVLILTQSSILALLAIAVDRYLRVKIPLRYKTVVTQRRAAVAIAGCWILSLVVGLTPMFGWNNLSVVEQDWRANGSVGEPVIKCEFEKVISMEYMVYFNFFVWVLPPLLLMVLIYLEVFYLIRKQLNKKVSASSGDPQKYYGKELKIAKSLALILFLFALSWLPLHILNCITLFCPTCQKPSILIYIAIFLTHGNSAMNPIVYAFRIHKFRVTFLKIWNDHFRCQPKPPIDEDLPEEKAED
Experimental: Adenosine Receptor Binding--A1 Receptor Affinity (RBA1 )
Whole brain minus cerebellum and brainstem from male Long-Evans rats (150-200 g) was homogenized in 30 volumes of ice-cold 0.05M Tris-HCl buffer pH 7.7 using a Brinkman Polytron PT-10, (setting number 6 for 20 seconds) and centrifuged for ten minutes at 20,000 xg (Sorvall RC-2), 4° C. The supernatant was discarded, and the pellet was resuspended and centrifuged as before. The pellet was resuspended in 20 ml Tris-HCl buffer containing two International Units/ml of adenosine deaminase (Sigma type III from calf intestinal mucosa), incubated at 37° C. for 30 minutes, then subsequently at 0° C. for ten minutes. The homogenate was again centrifuged, and the final pellet was resuspended in ice-cold 0.05M Tris-HCl buffer pH 7.7 to a concentration of 20 mg/ml original wet tissue weight and used immediately.
Tissue homogenate (10 mg/ml) was incubated in 0.05M Tris-HCl buffer pH 7.7 containing 1.0 nM [^3 H]--N^6 -cyclohexyladenosine ([^3 H]--CHA) with or without test agents in triplicate for one hour at 25° C. Incubation volume was 2 ml. Unbound [^3 H]--CHA was separated by rapid filtration under reduced pressure through Whatman glass fiber (GF/B) filters. The filters were rinsed three times with 5 ml of ice cold 0.05M Tris-HCl buffer pH 7.7. The radio-labeled ligand retained on the filter was measured by liquid scintillation spectrophotometry after shaking the filters for one hour or longer on a mechanical shaker in 10 ml of Beckman Ready-Solv HP scintillation cocktail.
Nonspecific binding was defined as the binding which occurred in the presence of 1 mM theophylline. The concentration of test agent which inhibited 50% of the specific binding (IC50) was determined by nonlinear computer curve fit. The Scatchard plot was calculated by linear regression of the line obtained by plotting the amount of radioligand bound (pmoles/gram of tissue) [formula] Since the amount of radioligand bound was a small fraction of the total amount added, free radioligand was defined as the concentration of (nM) of radioligand added to the incubation mixture. The Hill coefficient was calculated by linear regression of the line obtained by plotting the log of the bound radioligand vs the log of the [formula] The maximal number of binding sites (Bmax) was calculated from the Scatchard plot.

[3] = target: T2, adenosine A2 receptor (Rattus norvegicus, UniProt P30543); assay: Adenosine Receptor Binding--A2 Receptor Affinity (RBA2), [3H]NECA, striatal membranes; settings: read-out: RBA-2 IC50
T2 construct: Brains were thawed and then kept on ice while the striata were dissected out; tissue Pel-Freez (Rogers, Ark.); host or cells: striata of Sprague-Dawley rats (Long-Evans hooded rats gave essentially identical results)
Experimental: Adenosine Receptor Binding--A2 Receptor Affinity (RBA2)
Brains from 200-500 g mixed sex Sprague-Dawley rats were purchased from Pel-Freez (Rogers, Ark.). Fresh brains from male Long-Evans hooded rats (Blue Spruce Farms, Altamont, NY) gave essentially identical results. Brains were thawed and then kept on ice while the striata were dissected out. Striata were disrupted in 10 vol of ice-cold 50 mM Tris.HCl (pH 7.7 at 25° C., pH 8.26 at 5° C.) (Tris) for 30 seconds in a Polytron PT-10 (Brinkmann) at setting 5. The suspension was centrifuged at 50,000 xg for ten minutes, the supernatant discarded, the pellet resuspended in 10 vol ice-cold Tris as above, recentrifuged, resuspended at 1 g/5ml, and stored in plastic vials at -70° C. (stable for at least six months). When needed, tissue was thawed at room temperature, disrupted in a Polytron, and kept on ice until used.
All incubations were for 60 minutes at 25° C. in 12×75 mm glass tubes containing 1 ml Tris with 5 mg original tissue weight of rat weight of rat striatal membranes, 4 nM [^3 H]--N-ethyl adenosine-5'-carboxamide ([^3 H]NECA), 50 nM N^6 -cyclopentyladenosine (to eliminate A1 receptor binding), 10 mM MgCl2, 0.1 units/ml of adenosine deaminase and 1% dimethylsulfoxide. N^6 -Cyclopentyladenosine was dissolved at 10 mM in 0.02N HCl and diluted in Tris. Stock solutions and dilutions of N^6 -cyclopentyladenosine could be stored at -20° C. for several months. Test compounds were dissolved at 10 mM in dimethylsulfoxide on the same day as the experiment, and diluted in dimethylsulfoxide to 100×the final incubation concentration. Control incubations received an equal volume (10 μl) of dimethylsulfoxide; the resulting concentration of dimethylsulfoxide had no effect on binding. [^3 H]NECA was diluted to 40 nM in Tris. The membrane suspension (5 mg/0.79 ml) contained sufficient MgCl2 and adenosine deaminase to give 10 mM and 0.1 units/ml, respectively, final concentration in the incubation. […] After all additions, the rack of tubes was vortexed, and the tubes were then incubated for 60 min at 25° C. in a shaking water bath. The rack of tubes was vortexed an additional time halfway through the incubation.
Incubations were terminated by filtration through 2.4 cm GF/B filters under reduced pressure. Each tube was filtered as follows: the contents of the tube were poured on the filter, 4 ml of ice-cold Tris were added to the tube and the contents poured onto the filter, and the filter was washed twice with 4 ml of ice-cold Tris. The filtration was complete in about twelve seconds. Filters were put in scintillation vials, 8 ml of Formula 947 scintillation fluid added, and the vials left overnight, shaken, and counted in a liquid scintillation counter at 40% efficiency.
Nonspecific binding was defined as binding in the presence of 100 μM N^6 -cyclopentyladenosine, and specific binding was defined as total binding minus nonspecific binding. The IC50 was calculated by weighted nonlinear least squares curve-fitting to the mass-action equation. [formula] where Y is cpm bound
T is cpm total binding without drug
S is cpm specific binding without drug
D is the concentration of drug and
K is the IC50 of the drug
Weighting factors were calculated under the assumption that the standard deviation was proportional to the predicted value of Y. Nonspecific binding was treated as a very large (infinite) concentration of drug in the computer analysis.

[4] = Activity and screen test, rat orally: inhibition of motor activity; assay type: in vivo; settings: orally (PO)

T2 sequence (P30543 whole entry): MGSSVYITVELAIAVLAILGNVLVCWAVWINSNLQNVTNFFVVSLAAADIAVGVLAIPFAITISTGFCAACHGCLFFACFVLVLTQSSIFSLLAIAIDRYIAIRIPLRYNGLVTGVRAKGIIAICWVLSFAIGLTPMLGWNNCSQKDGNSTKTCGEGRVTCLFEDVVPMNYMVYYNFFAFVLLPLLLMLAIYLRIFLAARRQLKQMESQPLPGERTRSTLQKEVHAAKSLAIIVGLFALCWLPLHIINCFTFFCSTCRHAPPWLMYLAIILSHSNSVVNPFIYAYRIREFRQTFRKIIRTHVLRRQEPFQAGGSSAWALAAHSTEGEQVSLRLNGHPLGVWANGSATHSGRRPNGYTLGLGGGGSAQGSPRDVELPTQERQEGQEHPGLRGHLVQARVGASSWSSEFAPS

Compound: [O-][n+]1cnc2c(ncn2[C@@H]2O[C@H](CO)[C@@H](O)[C@H]2O)c1NCC1(c2ccccc2)CC1 [Example 4, N6-((1-Phenylcyclopropyl)methyl)adenosine-N1-oxide]
- Inhibition of screen test failure ([1]; 1 mg/kg): 11%
- Inhibition of screen test failure ([1]; 3 mg/kg): 0%
- Inhibition of screen test failure ([1]; 10 mg/kg): 0%
- IC50 [2]: 6.5 µM
- IC50 [3]: 35 µM
- Inhibition of motor activity ([4]; 1 mg/kg): 2%
- Inhibition of motor activity ([4]; 3 mg/kg): 15%
- Inhibition of motor activity ([4]; 10 mg/kg): 2%
